Test results taken from ChEMBL document CHEMBL1909046, “DrugMatrix in vitro pharmacology data”.

Tests used:
[1] = target: Substance-P receptor (Homo sapiens, UniProt P25103); type: cell membranes, CHO, Membrane; conditions: cho; also: in other assays of this panel Not Active means under 50% inhibition at 10 µM
[2] = target: T1, C-X-C chemokine receptor type 1 (Homo sapiens, UniProt P25024); also: in other assays of this panel Not Active means under 50% inhibition at 10 µM
T1 sequence (P25024 whole entry): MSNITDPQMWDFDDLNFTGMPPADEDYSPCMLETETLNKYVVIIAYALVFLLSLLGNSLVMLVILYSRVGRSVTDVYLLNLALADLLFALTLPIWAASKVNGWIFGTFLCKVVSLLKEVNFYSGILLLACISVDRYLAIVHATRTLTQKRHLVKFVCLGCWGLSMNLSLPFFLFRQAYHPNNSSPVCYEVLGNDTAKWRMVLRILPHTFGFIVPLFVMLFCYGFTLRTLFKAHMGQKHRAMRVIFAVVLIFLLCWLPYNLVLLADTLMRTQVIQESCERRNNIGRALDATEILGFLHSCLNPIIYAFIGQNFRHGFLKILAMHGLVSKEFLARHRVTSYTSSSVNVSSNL

[3] = DRUGMATRIX: Imidazoline I2, Central radioligand binding (ligand: [3H] Idazoxan); type: cell membranes, Rattus norvegicus, Wistar, Cerebral cortex, Membrane; conditions: Not Active = under 50% inhibition at 10 µM
[4] = target: Insulin receptor (Rattus norvegicus, UniProt P15127); type: cell membranes, Wistar, Liver, Membrane; also: in other assays of this panel Not Active means under 50% inhibition at 10 µM
[5] = target: Nitric oxide synthase 1 (Rattus norvegicus, UniProt P29476); type: tissue-based, Cerebellum; also: in other assays of this panel Not Active means under 50% inhibition at 10 µM
[6] = DRUGMATRIX: Potassium Channel [KATP] radioligand binding (ligand: [3H] Glyburide); type: cell membranes, Membrane; conditions: hit-t15; Not Active = under 50% inhibition at 10 µM
[7] = target: Voltage-gated inwardly rectifying potassium channel KCNH2 (Homo sapiens, UniProt Q12809); conditions: hek293; also: in other assays of this panel Not Active means under 50% inhibition at 10 µM
Chain of Voltage-gated inwardly rectifying potassium channel KCNH2 (Q12809 whole entry): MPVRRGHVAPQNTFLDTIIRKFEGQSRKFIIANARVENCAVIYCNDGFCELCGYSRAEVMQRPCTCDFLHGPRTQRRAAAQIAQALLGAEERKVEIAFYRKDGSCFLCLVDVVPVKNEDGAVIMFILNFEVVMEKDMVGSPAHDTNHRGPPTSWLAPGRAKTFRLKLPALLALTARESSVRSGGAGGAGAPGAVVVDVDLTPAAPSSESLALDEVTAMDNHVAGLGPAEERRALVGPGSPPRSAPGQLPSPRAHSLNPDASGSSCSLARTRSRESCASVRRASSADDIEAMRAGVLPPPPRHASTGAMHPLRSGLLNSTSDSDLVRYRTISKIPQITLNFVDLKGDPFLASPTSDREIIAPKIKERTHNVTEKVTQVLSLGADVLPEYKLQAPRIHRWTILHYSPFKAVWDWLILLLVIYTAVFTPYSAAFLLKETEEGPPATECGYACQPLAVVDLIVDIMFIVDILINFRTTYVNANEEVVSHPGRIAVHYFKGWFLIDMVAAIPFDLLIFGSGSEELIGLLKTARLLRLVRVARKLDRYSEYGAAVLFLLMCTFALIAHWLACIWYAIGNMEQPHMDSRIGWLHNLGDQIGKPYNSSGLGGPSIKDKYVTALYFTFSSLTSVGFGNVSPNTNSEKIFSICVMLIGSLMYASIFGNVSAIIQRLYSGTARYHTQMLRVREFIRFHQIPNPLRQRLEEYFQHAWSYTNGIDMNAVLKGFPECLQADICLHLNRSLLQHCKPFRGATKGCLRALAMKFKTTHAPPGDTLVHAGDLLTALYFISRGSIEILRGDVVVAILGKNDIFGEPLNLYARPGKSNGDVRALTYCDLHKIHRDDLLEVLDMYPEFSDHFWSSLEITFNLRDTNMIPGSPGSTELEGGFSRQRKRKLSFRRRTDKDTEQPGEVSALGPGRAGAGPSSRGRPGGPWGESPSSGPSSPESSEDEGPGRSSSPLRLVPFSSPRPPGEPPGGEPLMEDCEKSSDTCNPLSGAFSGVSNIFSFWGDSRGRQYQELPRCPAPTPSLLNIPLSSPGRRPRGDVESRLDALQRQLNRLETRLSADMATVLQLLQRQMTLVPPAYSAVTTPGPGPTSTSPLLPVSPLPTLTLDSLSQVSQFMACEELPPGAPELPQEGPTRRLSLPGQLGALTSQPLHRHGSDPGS

Chain of Substance-P receptor (P25103 whole entry): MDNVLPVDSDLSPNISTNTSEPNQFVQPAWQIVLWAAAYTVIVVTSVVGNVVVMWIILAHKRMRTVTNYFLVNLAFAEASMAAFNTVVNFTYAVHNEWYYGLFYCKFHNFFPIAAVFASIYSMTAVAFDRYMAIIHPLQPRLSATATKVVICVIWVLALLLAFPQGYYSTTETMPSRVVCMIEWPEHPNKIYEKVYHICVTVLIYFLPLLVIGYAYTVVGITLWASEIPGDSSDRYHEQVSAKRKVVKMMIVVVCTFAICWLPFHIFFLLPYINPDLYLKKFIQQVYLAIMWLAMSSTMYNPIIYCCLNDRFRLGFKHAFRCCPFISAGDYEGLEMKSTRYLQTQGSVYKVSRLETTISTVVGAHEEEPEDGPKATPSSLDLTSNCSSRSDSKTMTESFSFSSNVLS
Chain of Nitric oxide synthase 1 (P29476 whole entry): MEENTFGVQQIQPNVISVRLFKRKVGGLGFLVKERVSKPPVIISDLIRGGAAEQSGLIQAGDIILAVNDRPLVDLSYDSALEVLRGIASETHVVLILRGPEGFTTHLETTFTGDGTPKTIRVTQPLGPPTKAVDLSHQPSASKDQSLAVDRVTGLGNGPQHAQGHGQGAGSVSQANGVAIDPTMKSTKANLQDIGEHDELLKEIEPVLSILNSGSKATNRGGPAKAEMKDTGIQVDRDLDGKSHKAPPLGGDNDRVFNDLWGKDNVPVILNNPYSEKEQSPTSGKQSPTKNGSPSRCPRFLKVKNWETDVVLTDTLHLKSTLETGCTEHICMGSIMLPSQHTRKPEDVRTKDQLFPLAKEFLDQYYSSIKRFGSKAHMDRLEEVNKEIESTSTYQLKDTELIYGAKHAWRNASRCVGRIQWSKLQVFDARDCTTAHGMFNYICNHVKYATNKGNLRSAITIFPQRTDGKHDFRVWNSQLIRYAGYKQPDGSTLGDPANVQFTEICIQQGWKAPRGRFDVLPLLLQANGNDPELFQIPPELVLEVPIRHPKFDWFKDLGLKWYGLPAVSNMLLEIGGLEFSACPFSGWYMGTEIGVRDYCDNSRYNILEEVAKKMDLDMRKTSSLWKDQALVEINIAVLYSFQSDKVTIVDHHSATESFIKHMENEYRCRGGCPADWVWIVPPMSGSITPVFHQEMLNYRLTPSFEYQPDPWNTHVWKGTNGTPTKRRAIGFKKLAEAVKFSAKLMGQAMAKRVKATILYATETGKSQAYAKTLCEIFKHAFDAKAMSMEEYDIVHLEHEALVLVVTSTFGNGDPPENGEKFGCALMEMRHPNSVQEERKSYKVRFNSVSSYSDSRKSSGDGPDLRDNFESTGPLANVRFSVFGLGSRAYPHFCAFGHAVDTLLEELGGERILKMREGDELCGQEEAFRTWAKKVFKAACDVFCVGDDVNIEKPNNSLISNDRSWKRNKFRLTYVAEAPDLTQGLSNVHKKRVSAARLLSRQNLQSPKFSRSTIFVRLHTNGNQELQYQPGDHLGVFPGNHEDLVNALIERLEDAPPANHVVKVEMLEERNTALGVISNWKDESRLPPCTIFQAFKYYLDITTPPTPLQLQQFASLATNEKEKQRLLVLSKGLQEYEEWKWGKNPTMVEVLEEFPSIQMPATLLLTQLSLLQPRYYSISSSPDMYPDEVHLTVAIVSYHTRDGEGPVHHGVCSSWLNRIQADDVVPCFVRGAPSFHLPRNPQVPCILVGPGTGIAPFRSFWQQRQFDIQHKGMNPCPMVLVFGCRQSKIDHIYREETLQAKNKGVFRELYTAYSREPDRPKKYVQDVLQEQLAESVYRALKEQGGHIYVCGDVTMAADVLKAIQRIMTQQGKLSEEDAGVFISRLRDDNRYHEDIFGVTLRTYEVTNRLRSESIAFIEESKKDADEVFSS
Chain of Insulin receptor (P15127 27-759 limits assumed): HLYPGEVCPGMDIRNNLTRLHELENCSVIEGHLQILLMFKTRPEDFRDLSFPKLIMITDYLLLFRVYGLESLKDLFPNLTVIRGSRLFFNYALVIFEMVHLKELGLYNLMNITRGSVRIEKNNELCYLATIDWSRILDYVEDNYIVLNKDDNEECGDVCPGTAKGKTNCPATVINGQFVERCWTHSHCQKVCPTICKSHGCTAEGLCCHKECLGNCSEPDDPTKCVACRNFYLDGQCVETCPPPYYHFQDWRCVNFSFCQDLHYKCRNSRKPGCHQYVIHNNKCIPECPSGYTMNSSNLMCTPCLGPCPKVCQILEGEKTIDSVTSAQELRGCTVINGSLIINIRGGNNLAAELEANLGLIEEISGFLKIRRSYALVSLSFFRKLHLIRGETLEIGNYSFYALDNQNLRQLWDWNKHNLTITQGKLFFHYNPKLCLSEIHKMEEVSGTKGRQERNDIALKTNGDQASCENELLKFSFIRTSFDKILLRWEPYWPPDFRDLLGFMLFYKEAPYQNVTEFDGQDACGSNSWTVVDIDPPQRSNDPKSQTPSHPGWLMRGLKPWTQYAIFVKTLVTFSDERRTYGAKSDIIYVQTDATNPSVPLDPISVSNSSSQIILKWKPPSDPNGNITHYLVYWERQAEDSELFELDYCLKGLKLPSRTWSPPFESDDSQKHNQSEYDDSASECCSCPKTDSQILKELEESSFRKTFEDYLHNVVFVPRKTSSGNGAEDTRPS
Chain of Insulin receptor (P15127 764-1383 limits assumed): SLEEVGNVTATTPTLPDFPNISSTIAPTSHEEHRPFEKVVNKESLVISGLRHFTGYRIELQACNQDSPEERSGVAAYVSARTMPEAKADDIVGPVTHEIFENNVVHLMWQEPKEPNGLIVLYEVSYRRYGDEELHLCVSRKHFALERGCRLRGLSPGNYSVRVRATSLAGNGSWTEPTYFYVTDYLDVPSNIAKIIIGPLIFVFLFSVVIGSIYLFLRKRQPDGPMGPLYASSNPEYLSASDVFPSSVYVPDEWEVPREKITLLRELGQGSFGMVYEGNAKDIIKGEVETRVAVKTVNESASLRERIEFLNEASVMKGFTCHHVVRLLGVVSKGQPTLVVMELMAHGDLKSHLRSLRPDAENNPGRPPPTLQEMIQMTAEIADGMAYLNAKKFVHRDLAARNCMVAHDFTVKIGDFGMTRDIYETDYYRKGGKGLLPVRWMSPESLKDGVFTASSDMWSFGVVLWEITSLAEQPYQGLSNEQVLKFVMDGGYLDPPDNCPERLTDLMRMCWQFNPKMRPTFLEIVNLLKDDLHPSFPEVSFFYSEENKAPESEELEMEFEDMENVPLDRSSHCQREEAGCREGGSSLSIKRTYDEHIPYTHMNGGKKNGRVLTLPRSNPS

C[S+](C)[O-] [DIMETHYL SULFOXIDE]
Not Active: IC50 [1] | IC50 [2] | IC50 [3] | Ki [3] | IC50 [4] | IC50 [5] | IC50 [6] | Ki [6] | IC50 [7] | Ki [7]

C[C@@H]1O[C@@H](O[C@H]2C[C@@H](O)[C@]3(CO)[C@H]4[C@H](O)C[C@]5(C)[C@@H](C6=CC(=O)OC6)CC[C@]5(O)[C@@H]4CC[C@]3(O)C2)[C@H](O)[C@H](O)[C@H]1O [OUABAIN]
Not Active: IC50 [1] | IC50 [2] | IC50 [3] | Ki [3] | IC50 [4] | IC50 [5] | IC50 [6] | Ki [6] | IC50 [7] | Ki [7]

O=C(c1ccccc1F)N1CCC(Cc2ccccc2)CC1
Not Active: IC50 [1] | IC50 [2] | IC50 [3] | Ki [3] | IC50 [4] | IC50 [5] | IC50 [6] | Ki [6] | IC50 [7] | Ki [7]

O=C(O)CCNC(=O)c1ccc(/N=N/c2ccc(O)c(C(=O)O)c2)cc1 [BALSALAZIDE]
Not Active: IC50 [1] | IC50 [2] | IC50 [3] | Ki [3] | IC50 [4] | IC50 [5] | IC50 [6] | Ki [6] | IC50 [7] | Ki [7]

CN1C(=O)CN=C(c2ccccc2)c2cc([N+](=O)[O-])ccc21 [NIMETAZEPAM]
Not Active: IC50 [1] | IC50 [2] | IC50 [3] | Ki [3] | IC50 [4] | IC50 [5] | IC50 [6] | Ki [6] | IC50 [7] | Ki [7]

NS(=O)(=O)c1cc(C2(O)NC(=O)c3ccccc32)ccc1Cl (stereo not drawn) [CHLORTHALIDONE]
Not Active: IC50 [1] | IC50 [2] | IC50 [3] | Ki [3] | IC50 [4] | IC50 [5] | IC50 [6] | Ki [6] | IC50 [7] | Ki [7]

CC(=O)OCC(=O)[C@@]1(O)CC[C@H]2[C@@H]3CCC4=CC(=O)CC[C@]4(C)[C@@]3(F)[C@@H](O)C[C@@]21C [FLUDROCORTISONE ACETATE]
Not Active: IC50 [1] | IC50 [2] | IC50 [3] | Ki [3] | IC50 [4] | IC50 [5] | IC50 [6] | Ki [6] | IC50 [7] | Ki [7]

COLISTIN
Not Active: IC50 [1] | Ki [1] | IC50 [2] | Ki [2] | IC50 [3] | Ki [3] | IC50 [4] | Ki [4] | IC50 [5] | Ki [5] | IC50 [6] | Ki [6] | IC50 [7] | Ki [7]

O=c1c(-c2ccc(O)cc2)coc2cc(O)cc(O)c12 [GENISTEIN]
Not Active: IC50 [1] | IC50 [2] | IC50 [3] | Ki [3] | IC50 [4] | IC50 [5] | IC50 [6] | Ki [6] | IC50 [7] | Ki [7]

CN1C[C@@H]2C[C@H]1CN2c1cc2c(cc1F)c(=O)c(C(=O)O)cn2C1CC1 [DANOFLOXACIN]
Not Active: IC50 [1] | IC50 [2] | IC50 [3] | Ki [3] | IC50 [4] | IC50 [5] | IC50 [6] | Ki [6] | IC50 [7] | Ki [7]

C[C@]12C=CC(=O)C=C1CC[C@H]1[C@@H]3C[C@@H](O)[C@](O)(C(=O)CO)[C@@]3(C)C[C@H](O)[C@@]12F [TRIAMCINOLONE]
Not Active: IC50 [1] | IC50 [2] | IC50 [3] | Ki [3] | IC50 [4] | IC50 [5] | IC50 [6] | Ki [6] | IC50 [7] | Ki [7]

CN1CCN(c2c(F)cc3c(=O)c(C(=O)O)cn(CCF)c3c2F)CC1 [FLEROXACIN]
Not Active: IC50 [1] | IC50 [2] | IC50 [3] | Ki [3] | IC50 [4] | IC50 [5] | IC50 [6] | Ki [6] | IC50 [7] | Ki [7]

CC(O)(P(=O)(O)O)P(=O)(O)O [ETIDRONIC ACID]
Not Active: IC50 [1] | IC50 [2] | IC50 [3] | Ki [3] | IC50 [4] | IC50 [5] | IC50 [6] | Ki [6] | IC50 [7] | Ki [7]

CCOC(=O)c1ncn2c1CN(C)C(=O)c1cc(F)ccc1-2 [FLUMAZENIL]
Not Active: IC50 [1] | IC50 [2] | IC50 [3] | Ki [3] | IC50 [4] | IC50 [5] | IC50 [6] | Ki [6] | IC50 [7] | Ki [7]

NNCCc1ccccc1 [PHENELZINE]
Not Active: IC50 [1] | IC50 [2] | IC50 [3] | Ki [3] | IC50 [4] | IC50 [5] | IC50 [6] | Ki [6] | IC50 [7] | Ki [7]

COc1ccc2c(c1OC)C(=O)O[C@@H]2[C@H]1c2c(cc3c(c2OC)OCO3)CCN1C [NOSCAPINE]
Not Active: IC50 [1] | IC50 [2] | IC50 [3] | Ki [3] | IC50 [4] | IC50 [5] | IC50 [6] | Ki [6] | IC50 [7] | Ki [7]

COBALTOUS CHLORIDE
Not Active: IC50 [1] | Ki [1] | IC50 [2] | Ki [2] | IC50 [3] | Ki [3] | IC50 [4] | Ki [4] | IC50 [5] | Ki [5] | IC50 [6] | Ki [6] | IC50 [7] | Ki [7]

CC(=O)Oc1ccccc1C(=O)O [ASPIRIN]
Not Active: IC50 [1] | IC50 [2] | IC50 [3] | Ki [3] | IC50 [4] | IC50 [5] | IC50 [6] | Ki [6] | IC50 [7] | Ki [7]

CCN(CC)CCNC(=O)c1ccc(N)cc1 [PROCAINAMIDE]
Not Active: IC50 [1] | IC50 [2] | IC50 [3] | Ki [3] | IC50 [4] | IC50 [5] | IC50 [6] | Ki [6] | IC50 [7] | Ki [7]

Cc1c(O)cccc1C(=O)N[C@@H](CSc1ccccc1)[C@H](O)CN1C[C@H]2CCCC[C@H]2C[C@H]1C(=O)NC(C)(C)C
Not Active: IC50 [1] | IC50 [2] | IC50 [3] | Ki [3] | IC50 [4] | IC50 [5] | IC50 [6] | Ki [6] | IC50 [7] | Ki [7]

Cc1cccc(C)c1NC(=O)C1CCCCN1C (stereo not drawn) [MEPIVACAINE]
Not Active: IC50 [1] | IC50 [2] | IC50 [3] | Ki [3] | IC50 [4] | IC50 [5] | IC50 [6] | Ki [6] | IC50 [7] | Ki [7]
